Among the data in a melting point compilation (Tetko et al.) are melting point values, retold here.

The structures appear in SMILES notation.

As to `CC(=O)N1CCC(NC(=O)CCl)CC1`, the melting point (commonly the temperature of the solid-liquid transition) is 120 to 122 °C.
`COc1cccc(CNc2ccc3[nH]c(=O)[nH]c3c2)c1`: the melting point was 190 to 192 °C.
On to `CCC(C(=O)Nc1cccc(C(N)=S)c1)c1ccccc1` (configuration not stated), for which the melting point was 148 to 150 °C.
Consider `Nc1ccc(NC(=O)c2ccccc2I)cc1`, for which the melting point fell in the range of 143 to 145 °C.
The molecule `O=C(O)CCCc1ccc2c(c1)-c1ccccc1C2` showed a melting point of 151 to 153 °C.
As for `NNc1ccc(S(=O)(=O)Nc2ccc(Cl)cc2)cc1[N+](=O)[O-]`, the melting point lay within 187 to 189 °C.
With `CN(C)S(=O)(=O)c1ccc(O)cc1`, the melting point fell in the range of 95 to 97 °C.
The molecule `Clc1noc(-c2cccs2)n1` had a melting point of 37 to 39 °C.
Consider `O=[N+]([O-])c1ccc2nc(Cl)ccc2c1`, for which the melting point fell in the range of 224 to 226 °C.
`Nc1nc(C(F)(F)F)cs1` yielded a melting point of 66 to 68 °C.
The same measure for `CCNC(=O)Cc1ccc(N)cc1`: 117 to 119 °C.
The same measure for `N#Cc1ccccc1CN1CCOC1=O`: 91 to 93 °C; for `Nc1cccc(-c2ccc(=O)[nH]n2)c1`: 206 to 208 °C.
Molecule `Cc1ccc(C(=O)c2cccnc2)cc1` came in with a melting point of 71 to 73 °C.
As for `O=C(Nc1ccco1)OCC(F)(F)F`, the melting point was 78 to 80 °C.
`COC(=O)c1cc([N+](=O)[O-])cnc1C` came in with a melting point of 58 to 60 °C.
`O=C(O)C1CCN(c2ccccc2Br)C1=O` (configuration not stated): the melting point was 164 to 166 °C.
Molecule `FC(F)n1ccnc1Cn1cc(Br)cn1` gave a melting point of 79 to 81 °C.
`FC(F)(F)Cn1cnnc1S` displayed a melting point of 93 to 95 °C.
Next, `Nc1cc(Cl)c(N)cc1Cl`: 164 to 166 °C; `CNC(C)c1ccc(S(N)(=O)=O)cc1` (configuration not stated): 145 to 147 °C; `O=C1CCCCC1N1CCS(=O)(=O)CC1` (configuration not stated): 105 to 107 °C.
The molecule `c1cn2c(n1)CN(C1CCNCC1)CC2` gave a melting point of 63 to 65 °C.
`Cc1nc(NN)c2c3c(sc2n1)CCC3` showed a melting point of 182 to 184 °C.
`O=C1NC(=O)C(Cc2ccccc2)(c2ccccc2)N1` (configuration not stated) came in with a melting point of 209 to 211 °C.
`O=C(CCl)Nc1ccc2[nH]c(C(F)(F)F)nc2c1`: the melting point is 217 to 219 °C.
`O=C(O)C1CCCN(S(=O)(=O)Cc2ccccc2)C1` (configuration not stated) showed a melting point of 128 to 130 °C.
`COc1ccc(C2C(CO)CCC(=O)N2C)cc1` (configuration not stated) displayed a melting point of 119 to 121 °C.
Next, `O=S1(=O)N=C2CCCCCN2C(c2ccncc2)N1` (configuration not stated): 176 to 178 °C.
The same measure for `CCOC(=O)c1cnn(CCC#N)c1N`: 109 to 111 °C; for `Nc1nc(-c2ccc(F)cc2)cs1`: 111 to 113 °C; for `NCc1nnc2n1CC(C(F)(F)F)CC2` (configuration not stated): 55 to 57 °C.
Regarding `Nc1cc(C2CC2)nc2ccc(Cl)cc12`, the melting point was in the range of 96 to 98 °C.
In turn, `O=C(O)C1CSc2ccccc2O1` (configuration not stated) had a melting point of 126 to 128 °C.
`Fc1cccc(-c2nc(CCl)co2)c1` showed a melting point of 55 to 57 °C.
The molecule `Cc1nc(O)ccc1C(=O)O` registered a melting point of 329 to 331 °C.
On to `CC[C@@H](CO)NCc1ccccc1`, for which the melting point lay in the range of 73 to 75 °C.
Turning to `O=C(O)c1cc2cc(Br)cc(Br)c2o1`, the melting point was 279 to 281 °C.
Molecule `O=c1c(Cl)c(Cl)c1=O` came in with a melting point of 49 to 51 °C.
Molecule `CCCn1c(CCC(=O)O)nc2cc(S(N)(=O)=O)ccc21` displayed a melting point of 259 to 261 °C.
The molecule `O=C(O)CNS(=O)(=O)c1ccc(Cl)c(Cl)c1` showed a melting point of 127 to 129 °C.
With `O=C1NC(=O)C(c2ccccc2OC(F)(F)F)N1` (configuration not stated), the melting point lay in the range of 156 to 158 °C.
The same measure for `O=C(O)c1ccc(OCC2CC2)cc1`: 254 to 256 °C.
In turn, `O=C(O)c1ccn(-c2c(Cl)cc([N+](=O)[O-])cc2Cl)n1` had a melting point of 206 to 208 °C.
Next, `O=C(c1cccnc1)c1ccc2c(c1)CCO2`: 108 to 110 °C.
Molecule `Nc1cc(Br)c(S(N)(=O)=O)cc1[N+](=O)[O-]` gave a melting point of 268 to 270 °C.
For `Nc1cccc(Oc2ncc(Br)cn2)c1`, the melting point was in the range of 92 to 94 °C.
The same measure for `Cn1ccnc(Cl)c1=O`: 118 to 120 °C.
`CC(=O)c1cc([N+](=O)[O-])ccc1F`: the melting point was 48 to 50 °C.
`Cc1ccc(NC(=O)N(C)C)c(C(=O)O)c1` came in with a melting point of 163 to 165 °C.
`CC(=O)c1ccc(S(=O)(=O)NCc2ccc(F)cc2)cc1` registered a melting point of 149 to 151 °C.
Next, `CCOC(=O)c1oc2c(Br)cccc2c1C`: 68 to 70 °C.
As for `CCNS(=O)(=O)c1ccc(/C=C/C(=O)O)cc1`, the melting point was in the range of 248 to 250 °C.
`Cc1ncc(CN)c(O)n1` gave a melting point of 194 to 196 °C.
For the molecule `Cc1n[nH]c(C)c1S(=O)(=O)N1CCC(=O)CC1`, the melting point lay in the range of 191 to 193 °C.
The molecule `CC(C)(Nc1ccc([N+](=O)[O-])cc1)C(=O)O` yielded a melting point of 167 to 169 °C.
On to `CCc1cc(N)c2cc(N)ccc2n1`, for which the melting point lay in the range of 151 to 153 °C.
Take `CC(=O)c1ccc(-c2ccc(C=O)o2)cc1`: the melting point was 133 to 135 °C.
`O=C1CCCC1Cc1ccccc1[N+](=O)[O-]` (configuration not stated) returned a melting point of 38 to 40 °C.
In turn, `CCCCCCOc1ccc(CC(=O)O)cc1` had a melting point of 79 to 81 °C.
For `Cc1cc(/C=C/C(=O)O)c(C)n1-c1nccs1`, the melting point was 160 to 162 °C.
Next, `COC(=O)c1nsnc1C(=O)O`: 82 to 84 °C; `NC(=O)C1CCCN(c2ccc(C(=O)O)cc2)C1` (configuration not stated): 259 to 261 °C; `O=c1cc[nH]c2c(Br)cccc12`: 173 to 175 °C.
In turn, `Cc1cc(C(=O)O)c(C)n1CC1CC1` came in with a melting point of 179 to 181 °C.
On to `Cc1[nH]c2ccc(Oc3ccccc3)cc2c(=O)c1C`, for which the melting point lay in the range of 289 to 291 °C.
The same measure for `O=C(CCl)c1ccc(F)c(F)c1`: 37 to 39 °C.
Consider `COC(=O)c1cc(SC(=O)N(C)C)c(OC)cc1[N+](=O)[O-]`, for which the melting point fell in the range of 139 to 141 °C.
Turning to `NS(=O)(=O)CCc1ccccc1`, the melting point was 122 to 124 °C.
Molecule `O=C(O)c1ccnc(OC2CCC2)c1` yielded a melting point of 153 to 155 °C.
In turn, `Cc1nc(N)cc(C2CC2)n1` returned a melting point of 159 to 161 °C.
Next, `O=[N+]([O-])c1cncc(Br)c1`: 99 to 101 °C.
For `N#Cc1cc(F)ccc1N`, the melting point lay within 92 to 96 °C.
`NC(=S)NCC(F)(F)F` displayed a melting point of 154 to 156 °C.
Molecule `O=C(O)c1ccc(OC2CCCCC2)cc1` showed a melting point of 184 to 186 °C.
As to `CC(C)(C)OC(=O)Nc1cccc(CCl)c1`, the melting point fell in the range of 103 to 105 °C.
The same measure for `COc1ccc2c(c1)C(=O)CCC2`: 55 to 59 °C.
For `Nc1ccc(C(=O)Nc2ccccc2)cc1`, the melting point was in the range of 134 to 136 °C.
Regarding `CSCCC(NC(=O)c1ccc(Cl)cc1Cl)C(=O)O` (configuration not stated), the melting point fell in the range of 79 to 81 °C.
`Nc1nc(SCc2ccccc2)ns1` returned a melting point of 104 to 106 °C.
Regarding `O=C(O)c1cc(-c2ccc(Cl)cc2)nn1-c1ccccc1`, the melting point is 214 to 216 °C.
In turn, `O=C(O)c1sccc1S(=O)(=O)N1CCOCC1` yielded a melting point of 189 to 191 °C.
The same measure for `Nc1cccc(CS(=O)C2CCCCC2)c1` (configuration not stated): 88 to 90 °C.
The same measure for `Cc1nc(-c2ccccc2)c(N)s1`: 169 to 171 °C; for `CC1=CC=CC(=C2Nc3cc(F)ccc3N2C2CC2)C1=N`: 149 to 151 °C.
For `Clc1ccc(OCCBr)c(Br)c1`, the melting point was in the range of 30 to 32 °C.
For `Cc1cnn(Cc2cc(C(=O)O)no2)c1`, the melting point was 163 to 165 °C.
The molecule `NC(Cc1cccc2cccnc12)=NO` registered a melting point of 172 to 174 °C.
Next, `Cn1ccnc1Sc1ccccc1N`: 121 to 123 °C.
The molecule `O=C(O)c1ccc(-n2ccnc2)nn1` yielded a melting point of 238 to 240 °C.
In the case of `COC(=O)c1c(Cl)ccc([N+](=O)[O-])c1N`, the melting point fell in the range of 89 to 91 °C.
With `CCOc1ccc(S(N)(=O)=O)cn1`, the melting point was in the range of 133 to 135 °C.
The same measure for `O=C1OCCN1c1cccc([N+](=O)[O-])c1`: 135 to 137 °C; for `O=C(O)CCc1nnc(-c2ccccc2)o1`: 144 to 146 °C.
In turn, `CC(NC(=O)CC#N)c1ccccc1` (configuration not stated) showed a melting point of 115 to 117 °C.
Molecule `Brc1cccc2[nH]ncc12` showed a melting point of 165 to 167 °C.
`COc1ccc(CNc2nnc(S)s2)cc1`: the melting point lay in the range of 137 to 139 °C.
Next, `CCCOc1ccc(Cl)cc1C(=O)O`: 59 to 61 °C.
In turn, `O=c1[nH]cnc2cc(F)ccc12` yielded a melting point of 260 to 262 °C.
Next, `NCc1ccc(NC(=O)c2cccnc2)cc1`: 137 to 139 °C; `Cc1ccc(I)c(O)c1`: 62 to 64 °C; `O=C(O)CSCC(=O)N1CCOCC1`: 119 to 121 °C.
Take `CC(C)(C)NC(=O)c1ccc(C(=O)O)cc1`: the melting point was in the range of 217 to 219 °C.
With `O=C(O)C1CCN(c2ccc(Br)cn2)CC1`, the melting point is 213 to 215 °C.
`O=C1CCC2(CCN1)OCCO2` gave a melting point of 101 to 103 °C.
The same measure for `Cc1nc(NC(=O)CCl)sc1C`: 144 to 146 °C; for `O=C(c1cccnc1Cl)N1CCCC1`: 77 to 79 °C.
`Nc1ccc(C(=O)O)c(I)c1` gave a melting point of 160 to 162 °C.
For the molecule `O=S1(=O)CCCN1Cc1ccc(Br)cc1`, the melting point fell in the range of 58 to 60 °C.
Next, `COC(=O)c1cnc(NC2CC2)s1`: 157 to 159 °C.
In the case of `O=S1(=O)Cc2ccccc2N1`, the melting point fell in the range of 123 to 125 °C.
As for `COc1ncc(F)c(O)n1`, the melting point is 195 to 197 °C.
The molecule `CNc1ccc(C(=O)N2CCOCC2)cc1C` registered a melting point of 107 to 109 °C.
`NC1CCN(C2CCOCC2)C1=O` (configuration not stated) registered a melting point of 50 to 52 °C.
`CC(C)(C(=O)NO)c1ccccc1` showed a melting point of 144 to 146 °C.
`CC(C)CNC(=O)c1ccccc1N`: the melting point was 109 to 111 °C.
In turn, `CSCC(=O)Nc1ccc(O)cc1` returned a melting point of 107 to 109 °C.
`Nc1cc([N+](=O)[O-])c(F)cc1F` returned a melting point of 98 to 100 °C.
Molecule `NS(=O)(=O)c1c(F)cccc1[N+](=O)[O-]` displayed a melting point of 163 to 165 °C.
The same measure for `O=C(O)c1nc(-c2cccs2)n(-c2ccccc2)n1`: 199 to 201 °C; for `O=C(CCl)NCc1ccccc1OC(F)(F)F`: 66 to 68 °C; for `COc1ccc(-n2ccnc2S)c(C)c1`: 238 to 240 °C.
